IC50 data for 24 compounds are collected here from patent publication US9150566B2, “2-(1,2,3-triazol-2-yl)benzamide and 3-(1,2,3-triazol-2-YL)picolinamide derivatives as orexin receptor antagonists” (ACTELION PHARMACEUTICALS LTD., priority 2011, dated 2015).

Series [1] deals with CYP3A4 (Homo sapiens (Human), UniProt P08684). Kind of series: CYP3A4 inhibition assay (human liver microsomes, testosterone 6β-hydroxylation). As to conditions: read-out: CYP3A4 IC50, 40 μM testosterone.
Experimental: The CYP3A4 inhibition assay was performed using human liver microsomes and testosterone 6β-hydroxylation as a P450 isoform-specific marker. In a total volume of 150 μL, ^14C-testosterone at a final concentration of 40 μM in a 100 mM phosphate buffer (pH 7.4) was incubated in a 96-well plate with 0.3 mg/mL of human liver microsomes in an Eppendorf thermomixer at 37° C. and 400 rpm. […] The reaction was initiated by addition of 15 μL of the NADPH-regenerating system containing the glucose-6-phosphate dehydrogenase and terminated after 7 min with a 75 μL-aliquot of methanol. After centrifugation at 465 g and 4° C. for 20 min, a 50 μL-aliquot of the supernatant was submitted to HPLC according to the method described below. The total concentration of DMSO in the assay including controls without inhibitor was 1%.
Nicardipine was run in parallel as a reference inhibitor of CYP3A4 activity at final concentrations of 0, 0.1, 0.5, 1.0, 5.0, 10, 25, and 50 μM. Stock solutions thereof were prepared in DMSO.
The chromatographic separation of testosterone and 6β-hydroxytestosterone was achieved on a Phenomenex Luna C18(2) column (5 μm, 2.0×10 mm) at RT with a flow rate of 0.6 mL/min. Mobile phases consisted of 1% aqueous formic acid (phase A) and methanol (phase B) using a gradient method with 0.9 min total run time.
The quantification of 6β-hydroxytestosterone was carried out using a quadrupole mass spectrometer equipped with an ionspray interface operating in positive ion mode. The parameters of the mass detector were set as follows: capillary voltage 5 kV, auxiliary gas 40 psi, collision gas 3 mTorr, and transfer capillary temperature 420° C.
In series [2] the target is human orexin-2 receptor (Homo sapiens (Human), UniProt O43614). Kind of series: In vitro intracellular calcium measurements (FLIPR), antagonistic activity on orexin-2 receptor. The settings on record: read-out: IC50 OX2. It is filed as cell-based. As to the method: (§1) In Vitro Assay: Intracellular Calcium Measurements:
(§2) Chinese hamster ovary (CHO) cells expressing the human orexin-1 receptor and the human orexin-2 receptor, respectively, are grown in culture medium (Ham F-12 with L-Glutamine) containing 300 μg/mL G418, 100 U/mL penicillin, 100 μg/mL streptomycin and 10% heat inactivated fetal calf serum (FCS). The cells are seeded at 20′000 cells/well into 384-well black clear bottom sterile plates (Greiner). The seeded plates are incubated overnight at 37° C. in 5% CO2.
(§3) Within the Fluorescent Imaging Plate Reader (FLIPR Tetra, Molecular Devices), antagonists are added to the plate in a volume of 10 μL/well, incubated for 120 min and finally 10 μL/well of agonist is added. Fluorescence is measured for each well at 1 second intervals, and the height of each fluorescence peak is compared to the height of the fluorescence peak induced by 3 nM orexin-A with vehicle in place of antagonist. […] Optimized conditions were achieved by adjustment of pipetting speed and cell splitting regime. The calculated IC50 values may fluctuate depending on the daily cellular assay performance. Fluctuations of this kind are known to those skilled in the art.
A general note: Calcium assays in cells follow changes in intracellular calcium, usually with a dye or a luminescent sensor.

The target of series [3] is human orexin-1 receptor (Homo sapiens (Human), UniProt O43613). As to the kind of experiment: In vitro intracellular calcium measurements (FLIPR), antagonistic activity on orexin-1 receptor. As to conditions: read-out: IC50 OX1. It is filed as cell-based. How it is done:
as §1, §2, §3

Setting [4] is: CHO cells expressing human orexin-2 receptor, FLIPR, 3 nM orexin-A agonist, 120 min antagonist incubation, geometric mean if determined several times.
The mark [5] stands for this setting: CHO cells expressing human orexin-1 receptor, FLIPR, 3 nM orexin-A agonist, 120 min antagonist incubation, geometric mean if determined several times.

pIC50: −log10 of the molar value. Where two headings read alike, the source gives them in different places. A value given as a limit tells only on which side of the number the result lay.

CYP3A4, sequence (P08684 whole entry): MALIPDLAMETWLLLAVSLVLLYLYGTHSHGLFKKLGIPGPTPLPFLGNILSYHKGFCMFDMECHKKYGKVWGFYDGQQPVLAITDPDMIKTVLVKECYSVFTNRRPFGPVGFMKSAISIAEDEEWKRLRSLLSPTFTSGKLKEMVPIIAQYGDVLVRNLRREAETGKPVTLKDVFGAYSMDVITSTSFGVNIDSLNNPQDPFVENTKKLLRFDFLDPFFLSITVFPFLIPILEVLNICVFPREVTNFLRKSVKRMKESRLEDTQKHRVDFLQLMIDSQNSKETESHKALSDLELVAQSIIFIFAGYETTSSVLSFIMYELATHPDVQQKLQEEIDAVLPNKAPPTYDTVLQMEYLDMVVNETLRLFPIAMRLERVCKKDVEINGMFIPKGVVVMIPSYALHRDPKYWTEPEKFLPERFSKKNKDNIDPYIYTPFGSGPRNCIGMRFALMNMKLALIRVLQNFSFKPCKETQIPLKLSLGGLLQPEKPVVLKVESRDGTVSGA
human orexin-1 receptor, sequence (O43613 whole entry): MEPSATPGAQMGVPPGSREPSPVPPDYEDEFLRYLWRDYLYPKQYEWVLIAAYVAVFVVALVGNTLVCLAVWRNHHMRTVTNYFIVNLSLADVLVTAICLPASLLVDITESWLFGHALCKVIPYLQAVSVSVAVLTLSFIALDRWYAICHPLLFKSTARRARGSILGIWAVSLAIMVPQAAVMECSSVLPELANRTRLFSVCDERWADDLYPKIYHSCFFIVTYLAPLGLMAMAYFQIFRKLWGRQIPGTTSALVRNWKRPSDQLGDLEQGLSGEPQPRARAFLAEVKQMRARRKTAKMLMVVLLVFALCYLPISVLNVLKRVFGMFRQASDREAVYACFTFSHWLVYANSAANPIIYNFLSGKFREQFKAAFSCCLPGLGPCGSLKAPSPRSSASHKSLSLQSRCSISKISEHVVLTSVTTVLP
human orexin-2 receptor, sequence (O43614 whole entry): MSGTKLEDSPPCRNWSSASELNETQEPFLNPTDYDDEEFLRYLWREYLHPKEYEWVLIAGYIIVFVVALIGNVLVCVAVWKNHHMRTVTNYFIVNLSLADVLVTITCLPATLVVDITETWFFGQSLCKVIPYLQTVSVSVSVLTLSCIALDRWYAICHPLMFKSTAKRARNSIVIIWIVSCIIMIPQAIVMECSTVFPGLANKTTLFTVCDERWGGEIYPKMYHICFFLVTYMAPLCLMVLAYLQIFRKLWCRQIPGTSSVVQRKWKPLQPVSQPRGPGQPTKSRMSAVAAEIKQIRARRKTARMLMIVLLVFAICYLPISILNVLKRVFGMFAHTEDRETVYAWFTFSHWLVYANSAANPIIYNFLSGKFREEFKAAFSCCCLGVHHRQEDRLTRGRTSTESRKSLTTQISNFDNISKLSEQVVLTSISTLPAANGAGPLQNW

For `Cc1ccc(C(=O)N2CCO[C@H](C)[C@H]2Cc2cccc(-n3nccn3)c2)c(-n2nccn2)c1` (single isomer, unassigned) [Example 168, [(2R,3R)-2-Methyl-3-(3-[1,2,3]triazol-2-yl-benzyl)-morpholin-4-yl]-(4-methyl-2-[1,2,3]triazol-2-yl-phenyl)-methanone or [(2S,3R)-2-Methyl-3-(3-[1,2,3]triazol-2-yl-benzyl)-morpholin-4-yl]-(4-methyl-2-[1,2,3]triazol-2-yl-phenyl)-methanone], the pIC50 – broadly, −log10 of the IC50, conventionally taken in molar units – in series [1] is 5.07.
As for `C[C@@H]1CN(C(=O)c2ccc(Cl)cc2-n2nccn2)[C@H](Cc2cc(-c3ncccn3)ccc2F)CO1` [Example 153, (4-Chloro-2-[1,2,3]triazol-2-yl-phenyl)-[(2R,5R)-5-(2-fluoro-5-pyrimidin-2-yl-benzyl)-2-methyl-morpholin-4-yl]-methanone], the pIC50 was 7.07 in series [2] (setting [4]) and 4.74 in series [1].
Regarding `COc1cc(C(=O)N2CCOC[C@H]2Cc2cccc(-n3nccn3)c2)c(-n2nccn2)cc1Cl` [Example 104, (4-Chloro-5-methoxy-2-[1,2,3]triazol-2-yl-phenyl)-[(R)-3-(3-[1,2,3]triazol-2-yl-benzyl)-morpholin-4-yl]-methanone], the pIC50 in series [2] (setting [4]) was 6.93; in series [1], 4.89.
For `Cc1ccc(C(=O)N2C[C@@H](C)OC[C@H]2Cc2cccc(-c3ncccn3)c2)c(-n2nccn2)c1C` [Example 112, (3,4-Dimethyl-2-[1,2,3]triazol-2-yl-phenyl)-[(2R,5R)-2-methyl-5-(3-pyrimidin-2-yl-benzyl)-morpholin-4-yl]-methanone] the same measures were 6.08 and under 4.30.
For `Cc1ccc(-n2nccn2)c(C(=O)N2CCOC[C@H]2Cc2cccc(-c3ncccn3)c2)c1F` [Example 49, (2-Fluoro-3-methyl-6-[1,2,3]triazol-2-yl-phenyl)-[(R)-3-(3-pyrimidin-2-yl-benzyl)-morpholin-4-yl]-methanone], the pIC50 in series [2] (setting [4]) was 6.24; in series [1], 4.68.
For `Cc1ccc(-n2nccn2)c(C(=O)N2CCOC[C@H]2Cc2cc(-c3ncccn3)ccc2F)c1` [Example 155, [(R)-3-(2-Fluoro-5-pyrimidin-2-yl-benzyl)-morpholin-4-yl]-(5-methyl-2-[1,2,3]triazol-2-yl-phenyl)-methanone] the same measures were 6.43 and 4.52.
Consider `O=C(c1ccc(Cl)cc1-n1nccn1)N1CCOC[C@H]1Cc1cc(-c2ncccn2)ccc1F` [Example 160, (4-Chloro-2-[1,2,3]triazol-2-yl-phenyl)-[(R)-3-(2-fluoro-5-pyrimidin-2-yl-benzyl)-morpholin-4-yl]-methanone], for which the pIC50 in series [2] (setting [4]) is 6.57; in series [1], 4.77.
For `Cc1ccc(C(=O)N2[C@H](Cc3cccc(-n4nccn4)c3)COC[C@H]2C)c(-n2nccn2)c1` [Example 69, [(3R,5R)-3-Methyl-5-(3-[1,2,3]triazol-2-yl-benzyl)-morpholin-4-yl]-(4-methyl-2-[1,2,3]triazol-2-yl-phenyl)-methanone], the pIC50 was 9.05 in series [3] and 6.50 in series [2].
Turning to `Cc1ccc(-n2nccn2)c(C(=O)N2C[C@@H](C)OC[C@H]2Cc2cc(-c3ncccn3)ccc2F)c1` [Example 147, [(2R,5R)-5-(2-Fluoro-5-pyrimidin-2-yl-benzyl)-2-methyl-morpholin-4-yl]-(5-methyl-2-[1,2,3]triazol-2-yl-phenyl)-methanone], the negative-log IC50 (pIC50) was 6.77 in series [2] (setting [4]) and 4.55 in series [1].
For the compound `Cc1cc(C(=O)N2CCOC[C@H]2Cc2ccc(C)c(-c3ncon3)c2)c(-n2nccn2)cc1C` [Example 79, (4,5-Dimethyl-2-[1,2,3]triazol-2-yl-phenyl)-[(R)-3-(4-methyl-3-[1,2,4]oxadiazol-3-yl-benzyl)-morpholin-4-yl]-methanone], the values for the pIC50 in series [3] (setting [5]) and in series [2] (setting [4]) were 9.40 and 7.89, respectively.
In the case of `Cc1cc(C)c(-n2nccn2)c(C(=O)N2CCOC[C@H]2Cc2cccc(-c3ncon3)c2)c1` [Example 89, (3,5-Dimethyl-2-[1,2,3]triazol-2-yl-phenyl)-[(R)-3-(3-[1,2,4]oxadiazol-3-yl-benzyl)-morpholin-4-yl]-methanone], the negative-log IC50 (pIC50) in series [3] (setting [5]) is 8.15; in series [2] (setting [4]), 6.38.
`Cc1ccc(C(=O)N2CCO[C@@H](C)[C@H]2Cc2cccc(-n3nccn3)c2)c(-n2nccn2)c1` (single isomer, unassigned) [Example 163, [(2S,3R)-2-Methyl-3-(3-[1,2,3]triazol-2-yl-benzyl)-morpholin-4-yl]-(4-methyl-2-[1,2,3]triazol-2-yl-phenyl)-methanone or [(2R,3R)-2-Methyl-3-(3-[1,2,3]triazol-2-yl-benzyl)-morpholin-4-yl]-(4-methyl-2-[1,2,3]triazol-2-yl-phenyl)-methanone]: in series [1], the negative-log IC50 (pIC50) is 4.85.
Turning to `Cc1cc(-n2nccn2)c(C(=O)N2CCOC[C@H]2Cc2cccc(-n3nccn3)c2)cc1Cl` [Example 103, (5-Chloro-4-methyl-2-[1,2,3]triazol-2-yl-phenyl)-[(R)-3-(3-[1,2,3]triazol-2-yl-benzyl)-morpholin-4-yl]-methanone], the pIC50 in series [3] (setting [5]) was 9.15; in series [2] (setting [4]), 7.33.
Taken in the same sequence, the figures for `O=C(c1cccc(F)c1-n1nccn1)N1CCOC[C@H]1Cc1cccc(-c2ncon2)c1` [Example 82, (3-Fluoro-2-[1,2,3]triazol-2-yl-phenyl)-[(R)-3-(3-[1,2,4]oxadiazol-3-yl-benzyl)-morpholin-4-yl]-methanone] were 7.39 and 5.94.
As for `O=C(c1c(F)cccc1-n1nccn1)N1CCOC[C@H]1Cc1cc(-n2nccn2)ccc1F` [Example 136, [(R)-3-(2-Fluoro-5-[1,2,3]triazol-2-yl-benzyl)-morpholin-4-yl]-(2-fluoro-6-[1,2,3]triazol-2-yl-phenyl)-methanone], the negative-log IC50 (pIC50) was 7.43 in series [3] (setting [5]) and 6.24 in series [2] (setting [4]).
Taken in the same sequence, the figures for `O=C(c1ccccc1-n1nccn1)N1CCOC[C@H]1Cc1cccc(-c2cccs2)c1` [Example 46, [(R)-3-(3-Thiophen-2-yl-benzyl)-morpholin-4-yl]-(2-[1,2,3]triazol-2-yl-phenyl)-methanone] were 9.30 and 6.79.
Take `Cc1cccc(C(=O)N2[C@H](Cc3cccc(-n4nccn4)c3)COC[C@@H]2C)c1-n1nccn1` [Example 72, [(3S,5R)-3-Methyl-5-(3-[1,2,3]triazol-2-yl-benzyl)-morpholin-4-yl]-(3-methyl-2-[1,2,3]triazol-2-yl-phenyl)-methanone]: the values for the negative-log IC50 (pIC50) in series [3] (setting [5]) and in series [2] (setting [4]) were 8.10 and 5.61, respectively.
Turning to `O=C(c1ccccc1-n1nccn1)N1CCOC[C@@H]1Cc1cccc(-n2nccn2)c1` [Example 13, [(S)-3-(3-[1,2,3]Triazol-2-yl-benzyl)-morpholin-4-yl]-(2-[1,2,3]triazol-2-yl-phenyl)-methanone], the negative-log IC50 (pIC50) in series [3] (setting [5]) was 6.02; in series [2] (setting [4]) it was 5.35.
For `O=C(c1cc(F)c(F)cc1-n1nccn1)N1CCOC[C@H]1Cc1cc(-n2nccn2)ccc1F` [Example 137, (4,5-Difluoro-2-[1,2,3]triazol-2-yl-phenyl)-[(R)-3-(2-fluoro-5-[1,2,3]triazol-2-yl-benzyl)-morpholin-4-yl]-methanone], the results for the pIC50 in series [3] (setting [5]) and in series [2] (setting [4]) were 7.52 and 6.69, respectively.
On to `Cc1cccc(C(=O)N2[C@H](Cc3cccc(-n4nccn4)c3)COC[C@H]2C)c1-n1nccn1` [Example 70, [(3R,5R)-3-Methyl-5-(3-[1,2,3]triazol-2-yl-benzyl)-morpholin-4-yl]-(3-methyl-2-[1,2,3]triazol-2-yl-phenyl)-methanone], for which the pIC50 in series [3] (setting [5]) was 8.30; in series [2] (setting [4]), 5.58.
For `O=C(c1cc(F)c(F)cc1-n1nccn1)N1CCOC[C@H]1Cc1cccc(-c2ncon2)c1` [Example 80, (4,5-Difluoro-2-[1,2,3]triazol-2-yl-phenyl)-[(R)-3-(3-[1,2,4]oxadiazol-3-yl-benzyl)-morpholin-4-yl]-methanone] the same measures were 7.55 and 6.19.
Turning to `Cc1ccc(-n2nccn2)c(C(=O)N2C[C@@H](C)OC[C@H]2Cc2cc(-n3ccnn3)ccc2F)c1` [Example 140, [(2R,5R)-5-(2-Fluoro-5-[1,2,3]triazol-1-yl-benzyl)-2-methyl-morpholin-4-yl]-(5-methyl-2-[1,2,3]triazol-2-yl-phenyl)-methanone], the values for the pIC50 in series [3] (setting [5]) and in series [2] (setting [4]) were 7.57 and 5.95, respectively.
Turning to `Cc1ccc(C(=O)N2CCOC[C@H]2Cc2cc(-c3ncccn3)ccc2F)c(-n2nccn2)c1C` [Example 158, (3,4-Dimethyl-2-[1,2,3]triazol-2-yl-phenyl)-[(R)-3-(2-fluoro-5-pyrimidin-2-yl-benzyl)-morpholin-4-yl]-methanone], the negative logarithm of the IC50 (pIC50) in series [2] (setting [4]) was 5.65; in series [1], 4.40.
As for `O=C(c1cc(F)ccc1-n1nccn1)N1CCOC[C@H]1Cc1cccc(-c2ncon2)c1` [Example 88, (5-Fluoro-2-[1,2,3]triazol-2-yl-phenyl)-[(R)-3-(3-[1,2,4]oxadiazol-3-yl-benzyl)-morpholin-4-yl]-methanone], the pIC50 in series [3] (setting [5]) was 7.52; in series [2] (setting [4]), 6.05.
